Data taken from patent US11795177B2, “Substituted quinoline analogs as aldehyde dehydrogenase 1A1 (ALDH1A1) inhibitors” (THE UNITED STATES OF AMERICA, AS REPRESENTED BY THE …, priority 2017, dated 2023).

Tests used:
ALDH1A1 enzyme = molecular target: T1, ALDH1A1 enzyme (Homo sapiens, UniProt P00352); test: ALDH1A1 enzymatic assay (in vitro); format: biochemical; details: ALDH1A1 enzyme 20 nM, NAD+ 1 mM, propionaldehyde 80 μM; read-out: ALDH1A1 IC50
T1 sequence (P00352 1-501): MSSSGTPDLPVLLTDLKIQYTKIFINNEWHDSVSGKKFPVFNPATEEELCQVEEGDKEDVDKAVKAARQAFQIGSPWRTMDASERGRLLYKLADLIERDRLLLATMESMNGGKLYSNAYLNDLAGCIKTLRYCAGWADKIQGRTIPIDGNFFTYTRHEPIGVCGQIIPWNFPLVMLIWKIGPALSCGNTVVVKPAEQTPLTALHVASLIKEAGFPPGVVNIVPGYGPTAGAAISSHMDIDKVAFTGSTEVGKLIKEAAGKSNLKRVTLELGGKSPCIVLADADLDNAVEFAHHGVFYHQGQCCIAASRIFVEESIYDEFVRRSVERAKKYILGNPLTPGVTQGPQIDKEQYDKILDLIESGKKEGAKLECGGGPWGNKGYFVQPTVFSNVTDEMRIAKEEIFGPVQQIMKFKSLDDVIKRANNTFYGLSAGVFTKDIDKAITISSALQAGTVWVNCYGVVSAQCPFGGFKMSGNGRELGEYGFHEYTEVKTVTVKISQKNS
Procedure, shortened: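 ALDH1A1 (20 nM final) in 100 mM HEPES pH 7.5, 0.01% Tween 20 was preincubated 15 min at RT with compound (968 pM–57.2 μM final), then started with 1 mM NAD+ and 80 μM propionaldehyde. NADH fluorescence (ex 340/em 450 nm) followed kinetically for 10 min; change normalized to no-inhibitor and no-enzyme controls for percent inhibition and curve fitting.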

MIA PaCa-2 cells = test: MIA PaCa2 cell-based assay (1,536-well high-content imaging ALDEFLUOR assay); design: species or system human; details: Homo sapiens, 0.5 h, ALDEFLUOR BAAA substrate 500 nM, 30 minutes
Procedure, shortened: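 MIA PaCa-2 cells (1,000/well), plated overnight, given BAAA substrate (500 nM) plus Hoechst 33342 (0.5 nM), then compound (16-point, 1.4 nM–47.8 μM final; 0.5% DMSO). After 30 min at 37° C, ALDH activity imaged by high-content microscopy as BAA-retaining (FITC) cells versus Hoechst-stained nuclei.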

Row | IC50 (ALDH1A1 enzyme) | IC50 (MIA PaCa-2 cells) | Structure (SMILES)
1 | < 0.5 µM | < 0.5 µM | CS(=O)(=O)C1CCN(C(=O)c2cnc3ccc(Cl)cc3c2-c2ccc(C3(C#N)CC3)cc2)CC1 [Example 295, 1-(4-(6-chloro-3-(4-(methylsulfonyl)piperidine-1-carbonyl)quinolin-4-yl)phenyl)cyclopropanecarbonitrile]
2 | < 0.5 µM | 1 to 10 µM | N#CC1(c2ccc(-c3c(C(=O)N4CCC(O)CC4)cnc4ccc(F)cc34)cc2)CC1 [Cpd. 337, 1-(4-(6-fluoro-3-(4-hydroxypiperidine-1-carbonyl)quinolin-4-yl)phenyl)cyclopropane-1-carbonitrile]
3 | < 0.5 µM | < 0.5 µM | N#CC1(c2ccccc2)CCN(c2c(C(=O)Nc3cnn(CC(=O)NC4CC4)c3)cnc3ccc(F)cc23)CC1 [Cpd. 347, 4-(4-cyano-4-phenylpiperidin-1-yl)-N-(1-(2-(cyclopropylamino)-2-oxoethyl)-1H-pyrazol-4-yl)-6-fluoroquinoline-3-carboxamide]
4 | < 0.5 µM | > 10 µM | CCOC(=O)N1CCN(C(=O)c2cnc3ccc(F)cc3c2N2CCC3(CC2)OCCO3)CC1 [Example 54, Ethyl 4-(6-fluoro-4-(1,4-dioxa-8-azaspiro[4.5]decan-8-yl)quinoline-3-carbonyl)piperazine-1-carboxylate]
5 | < 0.5 µM | 1 to 10 µM | O=C(C1CC1)C1CCN(C(=O)c2cnc3cc(F)c(F)cc3c2N2CCC3(CC2)OCCO3)CC1 [Example 193, (4-(cyclopropanecarbonyl)piperidin-1-yl)(6,7-difluoro-4-(1,4-dioxa-8-azaspiro[4.5]decan-8-yl)quinolin-3-yl)methanone]
6 | < 0.5 µM | 1 to 10 µM | COc1cc2ncc(C(=O)N3CCN(S(C)(=O)=O)CC3)c(N3CCC4(CC3)OCCO4)c2cc1OC [Example 130, (6,7-dimethoxy-4-(1,4-dioxa-8-azaspiro[4.5]decan-8-yl)quinolin-3-yl)(4-(methylsulfonyl)piperazin-1-yl)methanone]
7 | 1 to 10 µM | > 10 µM | CS(=O)(=O)N1CCN(C(=O)c2cnc3ccc(F)cc3c2N2CCC(CC#N)CC2)CC1 [Example 214, 2-(1-(6-fluoro-3-(4-(methylsulfonyl)piperazine-1-carbonyl)quinolin-4-yl)piperidin-4-yl)acetonitrile]
8 | < 0.5 µM | < 0.5 µM | CN(C)C(=O)Cn1cc(NC(=O)c2cnc3ccc(F)cc3c2N2CCC(C#N)(c3ccccc3)CC2)cn1 [Cpd. 339, 4-(4-cyano-4-phenylpiperidin-1-yl)-N-(1-(2-(dimethylamino)-2-oxoethyl)-1H-pyrazol-4-yl)-6-fluoroquinoline-3-carboxamide]
9 | < 0.5 µM | < 0.5 µM | N#CC1(c2ccccc2F)CCN(c2c(C(=O)N3CCN(C(=O)C4CC4)CC3)cnc3ccc(F)cc23)CC1 [Example 276, 1-(3-(4-(cyclopropanecareonyl)piperazine-1-carbonyl)-6-fluoroquinolin-4-yl)-4-(2-fluorophenyl)piperidine-4-carbonitrile]
10 | 0.5 to 1 µM | > 10 µM | O=C(c1cnc2ccc(F)cc2c1N1CCC2(CC1)OCCO2)N1CCOCC1 [Example 58, (6-fluoro-4-(1,4-dioxa-8-azaspiro[4.5]decan-8-yl)quinolin-3-yl)(morpholino)methanone]
11 | < 0.5 µM | 0.5 to 1 µM | N#CC1(c2ccc(-c3c(C(=O)Nc4cnn(CC(N)=O)c4)cnc4ccc(F)cc34)cc2)CC1 [Cpd. 342, N-(1-(2-amino-2-oxoethyl)-1H-pyrazol-4-yl)-4-(4-(1-cyanocyclopropyl)phenyl)-6-fluoroquinoline-3-carboxamide]
12 | < 0.5 µM | 1 to 10 µM | CC1(C#N)CCN(c2c(C(=O)N3CCN(S(C)(=O)=O)C4(CC4)C3)cnc3ccc(F)cc23)CC1 [Example 230, 1-(6-fluoro-3-(4-(methylsulfonyl)-4,7-diazaspiro[2.5]octane-7-carbonyl)quinolin-4-yl)-4-methylpiperidine-4-carbonitrile]
13 | < 0.5 µM | < 0.5 µM | CS(=O)(=O)C1CCN(C(=O)c2cnc3ccc(F)cc3c2N2CCC(C#N)(c3ccccc3)CC2)CC1 [Example 269, 1-(6-fluoro-3-(4-(methylsulfonyl)piperidine-1-carbonyl)quinolin-4-yl)-4-phenylpiperidine-4-carbonitrile]
14 | < 0.5 µM | 1 to 10 µM | CNC(=O)Cn1cc(NC(=O)c2cnc3ccc(F)cc3c2-c2ccc(C3(C#N)CC3)cc2)cn1 [Cpd. 355, 4-(4-(1-cyanocyclopropyl)phenyl)-6-fluoro-N-(1-(2-(methylamino)-2-oxoethyl)-1H-pyrazol-4-yl)quinoline-3-carboxamide]
15 | 1 to 10 µM | 1 to 10 µM | O=C1CC2(CCN(c3c(C(=O)N4CCN(C(=O)C5CC5)CC4)cnc4ccc(F)cc34)CC2)c2ccccc21 [Example 203, 1′-(3-(4-(cyclopropanecarbonyl)piperazine-1-carbonyl)-6-fluoroquinolin-4-yl)spiro[indene-1,4′-piperidin]-3(2H)-one]
16 | < 0.5 µM | < 0.5 µM | N#CC1(c2ccccc2)CCN(c2c(C(=O)N[C@H]3CC[C@H](O)CC3)cnc3ccc(F)cc23)CC1 [Cpd. 325, 4-(4-cyano-4-phenylpiperidin-1-yl)-6-fluoro-N-((1R,4R)-4-hydroxycyclohexyl)quinoline-3-carboxamide]
17 | < 0.5 µM | > 10 µM | O=C(c1cnc2ccc(F)cc2c1N1CCC2(CC1)OCCO2)N1CCC(F)(F)CC1 [Example 50, (4,4-difluoropiperidin-1-yl)(6-fluoro-4-(1,4-dioxa-8-azaspiro[4.5]decan-8-yl)quinolin-3-yl)methanone]
18 | 1 to 10 µM | > 10 µM | O=C(c1cnc2ccc(F)cc2c1N1CCC2(CC1)Cc1ccccc1C2=O)N1CCN(C(=O)C2CC2)CC1 [Example 204, 1′-(3-(4-(cyclopropanecarbonyl)piperazine-1-carbonyl)-6-fluoroquinolin-4-yl)spiro[indene-2,4′-piperidin]-1(3H)-one]
19 | < 0.5 µM | 1 to 10 µM | O=C(c1cnc2ccc(F)cc2c1N1CCC2(CCCC2=O)CC1)N1CCN(C(=O)C2CC2)CC1 [Example 250, 8-(3-(4-(cyclopropanecarbonyl)piperazine-1-carbonyl)-6-fluoroquinolin-4-yl)-8-azaspiro[4.5]decan-1-one]
20 | 1 to 10 µM | > 10 µM | CC1(C#N)CCN(c2c(C(=O)N3CCN(C(=O)C4CC4)CC3)cnc3[nH]ncc23)CC1 [Example 237, 1-(5-(4-(cyclopropanecarbonyl)piperazine-1-carbonyl)-1H-pyrazolo[3,4-b]pyridin-4-yl)-4-methylpiperidine-4-carbonitrile]
21 | < 0.5 µM | > 10 µM | O=C(c1cnc2c(F)cc(F)cc2c1N1CCC2(CC1)OCCO2)N1CCN(S(=O)(=O)N2CCCC2)CC1 [Example 163, (6,8-difluoro-4-(1,4-dioxa-8-azaspiro[4.5]decan-8-yl)quinolin-3-yl)(4-(pyrrolidin-1-ylsulfonyl)piperazin-1-yl)methanone]
22 | 0.5 to 1 µM | > 10 µM | CCC(=O)N1CCN(C(=O)c2cnc3ccccc3c2N2CCC(C)(C#N)CC2)CC1 [Example 94, 4-methyl-1-(3-(4-propionylpiperazine-1-carbonyl)quinolin-4-yl)piperidine-4-carbonitrile]
23 | < 0.5 µM | < 0.5 µM | CC(C)(C#N)c1ccc(-c2c(C(=O)N3CCC(S(C)(=O)=O)CC3)cnc3ccc(F)cc23)cc1 [Example 259, 2-(4-(6-fluoro-3-(4-(methylsulfonyl)piperidine-1-carbonyl)quinolin-4-yl)phenyl)-2-methylpropanenitrile]
24 | < 0.5 µM | 1 to 10 µM | CCNC(=O)N1CCN(C(=O)c2cnc3ccc(OC)cc3c2N2CCC3(CC2)OCCO3)CC1 [Example 43, N-ethyl-4-(6-methoxy-4-(1,4-dioxa-8-azaspiro[4.5]decan-8-yl)quinoline-3-carbonyl)piperazine-1-carboxamide]
25 | < 0.5 µM | 1 to 10 µM | CC1(C#N)CCN(c2c(C(=O)N3CCN(S(C)(=O)=O)CC3)cnc3c(F)c(F)c(F)cc23)CC1 [Example 138, 4-methyl-1-(6,7,8-trifluoro-3-(4-(methylsulfonyl)piperazine-1-carbonyl)quinolin-4-yl)piperidine-4-carbonitrile]
26 | < 0.5 µM | 1 to 10 µM | CN(C)C(=O)N1CCN(C(=O)c2cnc3cc(F)c(F)cc3c2N2CCC3(CC2)OCCO3)CC1 [Example 181, 4-(6,7-difluoro-4-(1,4-dioxa-8-azaspiro[4.5]decan-8-yl)quinoline-3-carbonyl)-N,N-dimethylpiperazine-1-carboxamide]
27 | 0.5 to 1 µM | > 10 µM | CCOC(=O)N1CCN(C(=O)c2cnc3ccccc3c2N2CCC(C)(C#N)CC2)CC1 [Example 100, Ethyl 4-(4-(4-cyano-4-methylpiperidin-1-yl)quinoline-3-carbonyl)piperazine-1-carboxylate]
